Measurements taken from patent US8580778B2, “Substituted dihydropyrazolones and their use” (Bayer Intellectual Property GmbH, priority 2008, dated 2013).
Structures can show the parent of a compound that is named as a salt.

Target: HIF prolyl hydroxylase
Assay: Inhibition of the activity of HIF prolyl hydroxylase (VBC complex binding test)
Assay type: biochemical
Details: cell lysate containing prolyl hydroxylase
Protocol: 1.a) Inhibition of the Activity of HIF Prolyl Dydroxylase:
Hydroxylated HIF bonds specifically to the von Hippel-Lindau protein-elongin B-elongin C complex (VBC complex). This interaction occurs only if HIF is hydroxylated on a conserved prolyl radical. It is the basis for the biochemical determination of HIF prolyl hydroxylase activity. The test is carried out as described [Oehme F., Jonghaus W., Narouz-Ott L., Huetter J., Flamme I., Anal. Biochem. 330 (1), 74-80 (2004)]:
A clear 96-well microtiter plate coated with NeutrAvidin HBC (Pierce) is incubated with blocker casein for 30 minutes. The plate is then washed three times with 200 μl each time of wash buffer (50 mM Tris, pH 7.5, 100 mM NaCl, 10% (v/v) blocker casein, 0.05% (v/v) Tween 20) per well. The peptide biotin-DLDLEMLAPYIPMDDDFQL (Eurogentec, 4102 Seraing, Belgium) is added in a concentration of 400 nM in 100 μl wash buffer. This peptide serves as a substrate for the prolyl hydroxylation and is bonded to the microtiter plate. After incubation for 60 minutes, the plate is washed three times with wash buffer, incubated with 1 mM biotin in blocker casein for 30 minutes and then washed again three times with wash buffer.
To carry out the prolyl hydroxylase reaction, the peptide substrate bonded to the plate is incubated with a cell lysate containing prolyl hydroxylase for 1 to 60 minutes. The reaction takes place in 100 μl reaction buffer (20 mM Tris, pH 7.5, 5 mM KCl, 1.5 mM MgCl2, 1 μM-1 mM 2-oxoglutarate, 10 μM FeSO4, 2 mM ascorbate) at room temperature. The reaction mixture moreover contains various concentrations of the prolyl hydroxylase inhibitor to be tested. The test substance is preferably, but not exclusively, employed at concentrations of between 1 nM and 100 μM. The reaction is stopped by washing the plate three times with wash buffer.
For quantitative determination of the prolyl hydroxylation, a fusion protein which contains both thioredoxin from E. coli and the VBC complex in 80 μl bonding buffer (50 mM Tris, pH 7.5, 120 mM NaCl) is added. After 15 minutes, 10 μl of a solution of polyclonal anti-thioredoxin antibodies from rabbit in bonding buffer are added. After a further 30 minutes, 10 μl of a solution of anti-rabbit immunoglobulin coupled to horseradish peroxidase in bonding buffer are added. After incubation at room temperature for 30 minutes, the plate is washed three times with wash buffer in order to remove non-bonded VBC complex and antibodies. To determine the amount of bonded VBC complex, the plate is incubated with TMB for 15 minutes. The colour reaction is ended by addition of 100 μl 1 M sulphuric acid. The amount of bonded VBC complex is determined by measurement of the optical density at 450 nm. It is proportional to the amount of hydroxylated proline in the peptide substrate.
Alternatively, a VBC complex coupled to europium (Perkin Elmer) can be used for detection of the prolyl hydroxylation. In this case, the amount of bonded VBC complex is determined by the fluorescence with respect to time. The use of VBC complex labelled with [^35S]-methionine is moreover possible. For this, the radioactively labelled VBC complex can be prepared by in vitro transcription-translation in reticulocyte lysate.

| Structure (SMILES) | IC50 [nM] |
| --- | --- |
| CN(C)C1CN(c2cc(-n3[nH]cc(-n4ccnn4)c3=O)ncn2)C1 [Example 9, 2-{6-[3-(Dimethylamino)azetidin-1-yl]pyrimidin-4-yl}-4-(1H-1,2,3-triazol-1-yl)-1,2-dihydro-3H-pyrazol-3-one dihydrochloride] | 760 |
| O=C(O)C1CN(c2cc(-n3[nH]cc(-n4ccnc4)c3=O)ncn2)C1 [Example 5, 1-{6-[4-(1H-Imidazol-1-yl)-5-oxo-2,5-dihydro-1H-pyrazol-1-yl]pyrimidin-4-yl}azetidine-3-carboxylic acid] | 540 |
| O=c1c(-n2ccnn2)c[nH]n1-c1cc(N2CCN(C3CCC3)CC2)ncn1 [Example 2, 2-[6-(4-Cyclobutylpiperazin-1-yl)pyrimidin-4-yl]-4-(1H-1,2,3-triazol-1-yl)-1,2-dihydro-3H-pyrazol-3-one] | 880 |
| N#Cc1cn(-c2c[nH]n(-c3cc(N4CCCOCC4)ncn3)c2=O)cn1 [Example 25, 1-{2-[6-(1,4-Oxazepan-4-yl)pyrimidin-4-yl]-3-oxo-2,3-dihydro-1H-pyrazol-4-yl}-1H-imidazole-4-carbonitrile] | 180 |

Next, values leading:

| IC50 [nM] | Structure (SMILES) |
| --- | --- |
| 380 | N#Cc1cn(-c2c[nH]n(-c3cc(N4CCCOCC4)ncn3)c2=O)nn1 [Example 26, 1-{2-[6-(1,4-Oxazepan-4-yl)pyrimidin-4-yl]-3-oxo-2,3-dihydro-1H-pyrazol-4-yl}-1H-1,2,3-triazole-4-carbonitrile] |
| 170 | N#Cc1cn(-c2c[nH]n(-c3cc(N4CCCCO4)ncn3)c2=O)nn1 [Example 29, 1-{2-[6-(1,2-Oxazinan-2-yl)pyrimidin-4-yl]-3-oxo-2,3-dihydro-1H-pyrazol-4-yl}-1H-1,2,3-triazole-4-carbonitrile] |
| 70 | N#Cc1cn(-c2c[nH]n(-c3cc(N4CC(F)(F)C4)ncn3)c2=O)nn1 [Example 21, 1-{2-[6-(3,3-Difluoroazetidin-1-yl)pyrimidin-4-yl]-3-oxo-2,3-dihydro-1H-pyrazol-4-yl}-1H-1,2,3-triazole-4-carbonitrile] |
| 130 | N#Cc1cn(-c2c[nH]n(-c3cc(N4CCC(F)(F)C4)ncn3)c2=O)nn1 [Example 17, 1-{2-[6-(3,3-Difluoropyrrolidin-1-yl)pyrimidin-4-yl]-3-oxo-2,3-dihydro-1H-pyrazol-4-yl}-1H-1,2,3-triazole-4-carbonitrile] |
